Here are results for one compound from patent publication US20060241143A1, “Combination of paroxetine and 2-methoxy-5-(5-trifluoromethyl-tetrazol-1-yl-benzyl)-(2s-phenyl-piperidin-3s-yl)-amine for treatment of depression and/or anxiety” (priority 2003, published 2006).

For the assay, the system named is mongolian gerbils. Nature of the assay: gerbil social interaction model (time spent in active social interactions). The format is in vivo. The note with it: 0.03 mg/kg i.p. (as free base), one hour after administration. Here is the method: Paroxetine hydrochloride hemihydrate (0.3 mg/kg p.o of the paroxetine measured as the free base), 2-methoxy-5-(5-trifluoromethyl-tetrazol-1-yl-benzyl)]-(2S-phenyl-piperidin-3S-yl)-amine dihydrochloride (hereinafter compound A) (0.03 mg/kg i.p of the compound A measured as the free base) and a combination of paroxetine (0.3 mg/kg p.o. of the paroxetine measured as the free base) and compound A (0.03 mg/kg i.p. of the compound A measured as the free base) were administered independently in mongolian gerbils to assess the effect on time spent in active social interactions.
The results obtained one hour after administration, expressed as a percentage variation of the time spent in active social interactions by each animal in respect to the value obtained by treatment of control animals, are summarised in table 1.

SMILES strings stand for the structures.

As for `COc1ccc(-n2nnnc2C(F)(F)F)cc1CN[C@H]1CCCN[C@H]1c1ccccc1.Cl.Cl` [Compound A], the “% Variation of the time spent in active social interactions in respect to control animals” value is “+19.9%”.
